PubChem BioAssay AID493003 (Sanford-Burnham Center for Chemical Genomics, 2010)
Calls of active or inactive are those of the source. How the calls were made is not given here.

system: S. cerevisiae tim10-1 mutant growth, luminescence; experiment: tim10-1 yeast growth inhibition potency – luminescence, S. cerevisiae, uHTS hits, dose response (AID 493003);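 further: yeast growth measured after about 22 hours at 25 °C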

Point of comparison: `CCCc1cc(-c2nc(-c3ccc(C)cc3)cs2)ccn1`, IC50 49.7 µM. Against it:
- COc1cc(/C=C/c2ccc3cccc(O)c3n2)c(Br)cc1O — 3.2-fold lower, 15.4 µM
- N#CC(C#N)=c1ccc2c(c1)NC1(CCCCC1)N=2 — 1.6-fold lower, 30.5 µM
- c1ccc(-c2cc(-c3nc4ccccc4[nH]3)c3ccccc3n2)cc1 — within 1.5-fold, 49.6 µM
- CC(=O)N1CCN(c2cc(N3CCc4ccccc4C3)c(F)cc2[N+](=O)[O-])CC1 — 5-fold lower, 9.9 µM
- O=C(Nc1cccc(C(=O)N2CCN(c3cccc(Cl)c3)CC2)c1)c1ccccc1 — within 1.5-fold, 35.2 µM
- Fc1ccccc1CNc1ccc(Cl)c(Cl)c1 — 1.8-fold lower, 26.9 µM
- CC(C)Nc1nnc(Sc2ccc(Cl)cc2[N+](=O)[O-])s1 — 6-fold lower, 8.34 µM
- CCOC(=O)c1ccc2[nH]c3c(c2c1)CCCC3 — within 1.5-fold, 34.4 µM
- C=CCc1c(C)nc(-c2ccccc2)nc1N/N=C/c1ccccc1 — 1.9-fold lower, 26.2 µM
- Cc1c(C)n(Cc2ccccc2)c2ccc(C(=O)OCCN(C)C)cc12 — 1.5-fold lower, 32.1 µM
- CC1CCN(C(=O)CCc2ccc(Oc3cc([N+](=O)[O-])cc([N+](=O)[O-])c3)cc2)CC1 — within 1.5-fold, 50.1 µM
- CCOC(=O)c1ccc(N2C(=O)CC(N3CCC(C(=O)OCC)CC3)C2=O)cc1 (centres undefined) — 3.3-fold lower, 15.1 µM
- Fc1c(F)c(C(F)(F)F)c(F)c(F)c1N/N=C\c1cccs1 — 4.5-fold lower, 11 µM
- N#C/C(=N/Nc1ccc(OC(F)(F)F)cc1)C(N)=S — 9.5-fold lower, 5.24 µM
- Cc1nc2c(-c3ccccc3)cnn2c(N)c1-c1ccccc1 — 2.1-fold lower, 24 µM
- CC(C)(C)NC(=O)NC(=O)COC(=O)CCC1CCCCC1 — within 1.5-fold, 69 µM
- CC(C)CN(CC(C)C)C(=S)Nc1ccc(Cl)cc1 — 3.2-fold lower, 15.6 µM
- O=C(ON=C1CCN(S(=O)(=O)c2ccccc2)CC1)c1ccc(F)cc1 — 1.9-fold lower, 26.4 µM
- CCCCCCSc1ccc([C@H]2N[C@@](C)(C(=O)OC)[C@H]3C(=O)N(C)C(=O)[C@@H]23)cc1 — within 1.5-fold, 53.2 µM
- O=C(Nc1ccc2c(c1)OCO2)c1cccc2c1C(=O)N(Cc1cccnc1)C2 — within 1.5-fold, 41.2 µM
- Cc1cc(Nc2cccc(F)c2)nc(-c2ccccc2O)n1 — within 1.5-fold, 64.2 µM
- Oc1cc(-c2ccccc2)c2ccccc2c1 — within 1.5-fold, 74.2 µM
- COc1cccc2sc(Nc3nc(-c4ccccn4)cs3)nc12 — 2.5-fold lower, 20.2 µM
- COc1ccc(C(CCNC(C)c2ccccc2)c2ccc(F)cc2)cc1 (centres undefined) — 2.4-fold lower, 20.6 µM
- COc1ccc(Cl)cc1NC(=S)NCCc1ccc(F)cc1 — 7-fold lower, 7.09 µM
- COc1ccc(OCC(=O)Nc2ccc(S(=O)(=O)N3CCCCC3)cc2)cc1 — within 1.5-fold, 36.4 µM
- Cc1cc(C)cc(N2C(=O)CC(Sc3nnnn3-c3ccccc3)C2=O)c1 (centres undefined) — 3.7-fold lower, 13.6 µM
- N/C(=N\OC(=O)CCCc1ccccc1)c1ccccc1Cl — 3-fold lower, 16.4 µM
- CN(/N=C/c1ccc([N+](=O)[O-])o1)c1ccccc1 — 1.5-fold lower, 32.7 µM
- COc1ccccc1N1C(=O)CC(Sc2n[nH]c(-c3cccc(C)c3)n2)C1=O (centres undefined) — 6.5-fold lower, 7.68 µM
- CCOC(=O)n1c(=O)n(Cc2ccccc2Cl)c2ccccc21 — 1.8-fold lower, 27.6 µM
- O=C(Nc1cc(Sc2ccccn2)cc([N+](=O)[O-])c1)c1cccc(F)c1 — 1.8-fold higher, 88 µM
- COc1ccc(S(=O)(=O)Nc2ccc(O)c(Sc3nc4ccccc4s3)c2)cc1 — within 1.5-fold, 34.1 µM
- Cc1cc(N)n2ncc(-c3ccc(F)cc3)c2n1 — within 1.5-fold, 36 µM
- CCNC(=S)NNC(=O)c1cc(-c2cc(C)ccc2C)nc2ccccc12 — 2-fold lower, 24.3 µM
- O=C(Nc1nccs1)c1ccc(Br)c(S(=O)(=O)N2CCOCC2)c1 — 1.8-fold lower, 27.7 µM
- O=S(=O)(c1ccc2c(c1)OCCO2)N1CCC(O)(c2ccc(Cl)cc2)CC1 — within 1.5-fold, 67.1 µM
- CSc1ccccc1NC(=O)C1CC(c2c(F)cccc2Cl)=NO1 (centres undefined) — 1.9-fold lower, 25.9 µM
- N#C/C(=C\c1ccccc1)C(=O)Nc1cc(S(=O)(=O)N2CCOCC2)ccc1N1CCCC1 — 1.6-fold lower, 31.3 µM
- O=C(CN1CCN(S(=O)(=O)c2ccc(Br)cc2)CC1)N/N=C/c1ccc(Br)s1 — within 1.5-fold, 43 µM
- N/C(=N\OC(=O)c1cccnc1)c1ccc(Cl)cc1Cl — 2.8-fold lower, 17.8 µM
- COc1cc2c(cc1OC)CN(C(=O)c1ccc(-c3ccccc3)cc1)CC2 — within 1.5-fold, 47.3 µM
- COc1ccc(-c2oc3ncnc(NCCCN(C)C)c3c2-c2ccc(OC)cc2)cc1 — within 1.5-fold, 65.5 µM
- COc1ccc(C(=O)O/N=C(\N)c2ccccc2Cl)cc1OC — 3.3-fold lower, 15 µM
- CCOC(=O)/C=C/C(=O)Nc1cccc([N+](=O)[O-])c1 — 7.1-fold lower, 7.03 µM
- CCOC(=O)C1CCCN(C2CC(=O)N(c3cccc(C(F)(F)F)c3)C2=O)C1 (centres undefined) — 3.6-fold lower, 13.7 µM
- Cc1ccc(O)c(-c2cc(-c3cccc(F)c3)n[nH]2)c1 — 2-fold higher, 97.9 µM
- O=C(CS(=O)(=O)c1ccccc1)Nc1nc(-c2ccccc2)cs1 — 2.1-fold lower, 24.2 µM
- N/C(=N\OC(=O)CCCc1ccccc1)c1ccccc1 — 2.5-fold lower, 19.9 µM
- CCCCCCCCCCOC(=O)Cn1c(COc2ccccc2OC)[n+](C)c2ccccc21 — 4.6-fold lower, 10.9 µM
- O=C(NC(=S)NCc1ccccc1)c1ccccc1F — within 1.5-fold, 66.5 µM
- Cc1cc(C)cc(OCCCOc2cccc3cccnc23)c1 — 1.5-fold lower, 32.4 µM
- Oc1c(Cl)cc(Cl)cc1CNc1ccc(Br)cn1 — within 1.5-fold, 33.2 µM
- N=C(N)c1ccc(/C=C/c2ccc(C(=N)N)cc2O)cc1 — 4.7-fold lower, 10.6 µM
- CN1CCN(c2cc(N3CCc4ccccc4C3)c(F)cc2[N+](=O)[O-])CC1 — within 1.5-fold, 71.6 µM
- CC(C)NC(=S)N/N=C1\CCCCc2ccccc21 — 3.6-fold lower, 13.9 µM
- CCC1CCCCN1c1nc(-c2ccncc2)nc2ccccc12 (centres undefined) — within 1.5-fold, 34.3 µM
- COC(=O)c1c(N2C(=O)CC(Sc3ccccc3C(=O)O)C2=O)sc2c1CCCC2 (centres undefined) — 4.1-fold lower, 12.2 µM
- CCN1C(=O)/C(=C/c2c(C)nn(C)c2C)SC1=S — 2-fold lower, 24.4 µM
- COc1ccc(Cl)cc1NC(=S)NCCSc1ccc(C)cc1 — 2.8-fold lower, 17.6 µM
- CC(CC(=O)Nc1ncc([N+](=O)[O-])s1)c1ccccc1 (centres undefined) — 2.7-fold lower, 18.5 µM
- CN(C)CCCN(C(=O)c1cc2cc([N+](=O)[O-])ccc2s1)c1nc2cc3c(cc2s1)OCCO3 — 3.6-fold lower, 13.7 µM
- O=C(CSCC(=O)N1CCCCC1)Nc1nc(-c2ccc(Cl)s2)cs1 — within 1.5-fold, 37.9 µM
- C=Cc1ncc(OC)c2c1[nH]c1ccccc12 — 2-fold lower, 25 µM
- C/C(=N\N=C1\NC(=O)C(CC(=O)Nc2ccc(C)c(Cl)c2)S1)C(C)(C)C (centres undefined) — within 1.5-fold, 47.3 µM
- O=C(Nc1ccc(F)cc1)c1cccc2c1C(=O)N(Cc1ccccn1)C2 — 2.8-fold lower, 18 µM
- COc1ccc(Br)c(-c2nnc(CS(=O)(=O)c3ccccc3)o2)c1 — 1.8-fold lower, 28.4 µM
- Cc1cccc2nc(COc3ccc(Cl)c4cccnc34)cn12 — within 1.5-fold, 44.7 µM
- S=c1[nH]nc(-c2ccco2)n1/N=C/C=C/c1ccccc1 — within 1.5-fold, 42.7 µM
- CCN1C(=O)C(CC(=O)Nc2ccc(OC)cc2)N(CCc2ccc(OC)cc2)C1=S (centres undefined) — 1.5-fold lower, 32.2 µM
- CC/C(=N\NC(=S)Nc1cc(C)ccc1C)c1ccc(OC(F)F)cc1 — within 1.5-fold, 34.9 µM
- c1ccc(Nc2cccc(Nc3ccccc3)c2)cc1 — 4.4-fold lower, 11.2 µM
- Cc1ccc(NC(=O)CN2CCC3(O)CCCCC3C2c2ccc3c(c2)OCO3)c(C)c1 (centres undefined) — within 1.5-fold, 60.9 µM

In the case of `Cc1nn(-c2ccccc2)c(Cl)c1C(=O)N1CCN(c2ncnc3c2cnn3-c2ccccc2)CC1`, the IC50 is reported as > 100 µM (inactive).
In the case of `COC(=O)COc1ccc(S(=O)(=O)N2CCN(c3ccccc3F)CC2)cc1C`, the IC50 is reported as > 100 µM (inactive).
`Cc1cc(Cl)ccc1OCC(=O)Nc1nc(-c2cccs2)cs1` was tested, and the IC50 was > 100 µM (inactive).
With `Cc1ccc2cc3cc(C(=O)NCCCN4CCc5ccccc5C4)oc3nc2c1` the IC50 was > 100 µM (inactive).
In the case of `Cc1c(C)n(C)c2ccc(C(=O)Nc3cccc4ccccc34)cc12`, the IC50 is reported as > 100 µM (inactive).
